Experiments:
[1] = tested on: ischemia-reperfusion mouse models; assay: Ischemia-reperfusion models in mice (Examples 1 and 2); format: in vivo
Experimental: After arrival and subsequent 7-day acclimation, the animals were randomly grouped. Except the animals in the control group, all other animals needed to be modeled. On day −1, the mice in each group were administered by gavage twice a day (BID). On the day of surgery (day 0), the mice underwent surgery post administration in the morning. On day 1, the dosing was continued, and on day 2, the endpoint treatment was performed. The mice were subjected to blood collection 24 hours and 48 hours post surgery, and for the endpoint treatment, their kidneys were taken and fixed in a formaldehyde solution for subsequent HE pathological detection.
The specific steps of the ischemia-reperfusion surgery were as follows: the mice were anesthetized with 4% chloral hydrate (10 ml/kg, ip) and secured in a prone position. An incision was made on the back and the right kidney was isolated while ensuring that the adrenal gland and ureter were not injured. The renal artery and renal vein were ligated and the right kidney was excised. The left kidney was isolated, and the renal arterial and venous tracts were carefully separated and clipped for 30 min using a mini bulldog clamp, and then the clamp was loosened. The skin was sutured layer by layer with a needle and thread, and the mice were returned to their cages for recovery.
(§1) The effects of the compounds on the kidney were then evaluated.

[2] = tested on: cisplatin-induced acute kidney injury mouse models; assay: Cisplatin-induced acute kidney disease models (Example 4); format: in vivo; details: for mortality rate of the mice: day 7 post modeling, same dosage (2.5 mg/kg oral BID per the 4th table), n=10
Experimental: After arrival and subsequent 7-day acclimation, the animals were randomly grouped. Except the animals in the control group, all other animals needed to be modeled by intraperitoneal injection with cisplatin. From day −3 to day 0, the mice in each group were administered BID. On the day of modeling (day 0), the animals were intraperitoneally injected with cisplatin (15 mg/kg) post administration in the morning. The dosing was continued until day 7. After the modeling, serum and urine samples were collected from the animals on day 4 and day 7, respectively, to measure the blood creatinine, urea nitrogen, and urinary albumin/creatinine (UACR) levels.
as §1

Janus kinase subtype 1 = Janus kinase subtype 1 (Homo sapiens, UniProt P23458); details: background statement, no data; cited from earlier work
[3] = tested on: LPS-induced acute kidney injury mouse models; assay: Lipopolysaccharide (LPS)-induced acute kidney disease models (Example 3); format: in vivo; details: FIG. 10
Experimental: After arrival and subsequent 7-day acclimation, the animals were randomly grouped. Except the animals in the control group, all other animals needed to be modeled by intraperitoneal injection with LPS. From day −2 to day 0, the mice in each group were administered by gavage, BID. On the day of modeling (day 0), the animals were intraperitoneally injected with LPS (12 mpk) post administration in the morning. Blood samples were collected after 24 h, and creatinine and urea nitrogen levels were measured.
as §1

Chain of Janus kinase subtype 1 (P23458 whole entry): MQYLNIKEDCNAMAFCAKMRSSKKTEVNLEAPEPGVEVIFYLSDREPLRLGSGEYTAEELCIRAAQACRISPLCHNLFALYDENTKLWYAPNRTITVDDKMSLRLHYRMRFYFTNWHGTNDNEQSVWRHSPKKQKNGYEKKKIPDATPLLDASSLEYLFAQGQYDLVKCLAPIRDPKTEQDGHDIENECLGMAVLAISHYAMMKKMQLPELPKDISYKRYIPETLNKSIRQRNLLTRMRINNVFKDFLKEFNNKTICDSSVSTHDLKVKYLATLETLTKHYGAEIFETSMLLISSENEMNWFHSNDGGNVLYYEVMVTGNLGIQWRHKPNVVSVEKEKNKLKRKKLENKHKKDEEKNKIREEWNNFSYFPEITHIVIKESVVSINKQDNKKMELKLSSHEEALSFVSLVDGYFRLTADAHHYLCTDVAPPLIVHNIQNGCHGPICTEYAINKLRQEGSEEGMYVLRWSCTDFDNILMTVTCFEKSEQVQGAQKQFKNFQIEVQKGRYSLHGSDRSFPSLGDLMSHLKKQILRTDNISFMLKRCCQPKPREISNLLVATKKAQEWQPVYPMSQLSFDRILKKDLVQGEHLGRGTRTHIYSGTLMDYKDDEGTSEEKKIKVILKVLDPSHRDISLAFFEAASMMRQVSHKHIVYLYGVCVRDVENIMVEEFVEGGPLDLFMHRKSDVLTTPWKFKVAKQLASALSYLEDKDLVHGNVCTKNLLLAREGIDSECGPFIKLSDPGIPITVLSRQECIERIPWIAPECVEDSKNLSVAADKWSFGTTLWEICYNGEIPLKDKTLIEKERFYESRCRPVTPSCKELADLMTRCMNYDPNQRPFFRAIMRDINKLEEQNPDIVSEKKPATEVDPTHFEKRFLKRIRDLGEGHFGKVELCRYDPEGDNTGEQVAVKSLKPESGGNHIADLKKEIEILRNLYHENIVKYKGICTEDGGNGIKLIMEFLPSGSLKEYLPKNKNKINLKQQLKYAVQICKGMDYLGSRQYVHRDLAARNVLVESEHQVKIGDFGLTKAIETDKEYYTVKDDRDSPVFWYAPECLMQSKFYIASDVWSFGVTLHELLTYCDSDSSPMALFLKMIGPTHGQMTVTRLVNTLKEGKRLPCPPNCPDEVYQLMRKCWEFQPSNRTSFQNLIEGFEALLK

| Structure (SMILES) | kidney/body weight ratio (renal compensatory hypertrophy) ([1]; Example 1, 10 mg/kg oral BID, 48 hours post modeling, FIG. 6) | improvement of kidney/body weight ratio compared with compound B ([1]; Example 1, 10 mg/kg oral BID, FIG. 6) | body weight reduction caused by ischemia-reperfusion ([1]; Example 1, 10 mg/kg oral BID, compared with compound B at the same dosage, FIG. 5) | kidney HE pathological scores ([1]; Example 1, 10 mg/kg oral BID, scores 0-3, FIG. 9) | blood creatinine and urea nitrogen, difference from the model group ([1]; Example 2, 5 mpk and 10 mpk oral BID, FIG. 8) | renal hypertrophy, difference from the model group ([1]; Example 2, 5 mpk oral BID, FIG. 7) | renal hypertrophy caused by ischemia-reperfusion (kidney/body weight ratio) ([1]; Example 2, all dosage groups 2.5 mpk, 5 mpk and 10 mpk oral BID, FIG. 7) | blood creatinine and urea nitrogen levels ([1]; Example 2, all dosage groups 2.5 mpk, 5 mpk and 10 mpk oral BID, FIG. 8) | blood creatinine and urea nitrogen, protective effect compared with compound B ([1]; Example 2, same dosage (5 mg/kg oral BID), FIG. 8) | overall kidney protective effect compared with compound B ([1]; Examples 1 and 2) | overall kidney protective effect (mortality, renal hypertrophy, kidney pathology, blood biochemical parameters) ([1]; Examples 1 and 2, compared with the model group) | blood creatinine and urinary albumin levels induced by cisplatin ([2]; 1.25, 2.5, 5 mg/kg oral BID, cisplatin 15 mg/kg ip, FIG. 11) | blood creatinine, blood urea nitrogen, urinary albumin/creatinine ratio, significance ([2]; 2.5 mpk and 5 mpk oral BID, FIG. 11) | kidney protective functions compared with compound B ([2]; cisplatin models, FIG. 11) | mortality rate of the mice [2] [%] | mortality of the mice ([2]; different dosages (1.25, 2.5, 5 mg/kg oral BID), model group 100% dead on day 6) | inhibitory activity against Janus kinase subtype 1 relative to subtype 2 or subtype 3 (selectivity) (Janus kinase subtype 1) | kidney protective functions, 5 mpk and 10 mpk compared with 2.5 mpk group ([3]; 5 mpk and 10 mpk oral BID) | blood creatinine and urea nitrogen levels induced by LPS ([3]; different dosage groups (2.5, 5, 10 mg/kg oral BID), 24 h after LPS 12 mpk ip) |
| --- | --- | --- | --- | --- | --- | --- | --- | --- | --- | --- | --- | --- | --- | --- | --- | --- | --- | --- | --- |
| COc1nsc(NC(=O)N2C[C@H]3C[C@H](N(C)c4ncnc5[nH]ccc45)C[C@H]3C2)n1 [Compound A, (3 aR,5 s,6aS)—N-(3-methoxy-1,2,4-thiadiazol-5-yl)-5-(methyl(7H-pyrrolo[2,3-d]pyrimidin-4-yl)amino)hexahydrocyclopenta[c]pyrrole-2(1H)-carb oxamide] | decreased kidney/body weight ratios | had some advantages in improving the kidney/body weight ratios | smaller decrease in body weight | significantly improved the kidney HE pathological scores | showed significant differences compared with the model group | significant difference | could reduce the renal hypertrophy | alleviated the increase in blood creatinine and urea nitrogen levels | stronger protective effect compared with compound B | more excellent kidney protective effect | exhibited kidney protective effects | dose-dependently alleviated the increase in blood creatinine and urinary albumin levels | showed significant differences | exhibited stronger kidney protective functions | 40 | significantly decreased the mortality | stronger inhibitory activity against Janus kinase subtype 1 relative to Janus kinase subtype 2 or Janus kinase subtype 3 | Stronger kidney protective functions | significantly alleviated the increase in blood creatinine and urea nitrogen levels |
| CCS(=O)(=O)N1CC(CC#N)(n2cc(-c3ncnc4[nH]ccc34)cn2)C1 [Compound B, Baricitinib, reference compound] |  |  |  |  |  |  |  |  |  |  |  |  |  |  | 80 |  |  |  |  |
